According to patent US20150105252A1, “SUBSTITUTED PYRAZOLES AS HERBICIDES” (E I DU PONT DE NEMOURS AND COMPANY, priority 2013, published 2015):

What was measured:
barnyardgrass [1] = assay: Test A postemergence; format: in vivo, Echinochloa crus-galli
In short: (§1)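 Visual injury ratings, 0 = no effect to 100 = complete control, taken about 10 days after treatment against untreated controls. Test chemicals, in a non-phytotoxic surfactant-containing solvent, were sprayed onto soil preemergence or onto one- to two-leaf plants (2–10 cm) postemergence, in loam–sand soil under greenhouse conditions.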

wheat = assay: Test A postemergence; format: in vivo, Triticum aestivum
In short: as §1

corn = assay: Test A preemergence; format: in vivo, Zea mays; details: preemergence
In short: as §1

pigweed = assay: Test C preemergence; format: in vivo, Amaranthus retroflexus
In short: (§2)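 Greenhouse pot test: preemergence application onto freshly seeded loam/sand mix, postemergence application onto seedlings (1–4 leaves, 2–18 cm) in peat-vermiculite substrate. Responses scored visually 13 to 15 days later relative to controls, where 0 means no effect and 100 means complete control; a dash indicates no result.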

soybean = assay: Test C preemergence; format: in vivo, Glycine max
In short: as §2

barnyardgrass [2] = assay: Test A preemergence; format: in vivo, Echinochloa crus-galli; details: preemergence
In short: as §1

ryegrass, Italian [3] = assay: Test C preemergence; format: in vivo, Lolium multiflorum
In short: as §2

oat, wild = assay: Test C postemergence; format: in vivo, Avena fatua; details: for Plant response rating (scale of 0 to 100 where 0 is no effect and 100 is complete control), Oat, Wild: Postemergence, 31 g ai/ha, visually evaluated after 13 to 15 days; for Oat, Wild plant response rating / Plant response rating, Oat, Wild: postemergence; for Oat, Wild plant response rating: 62 g ai/ha, scale 0 to 100
In short: as §2

ryegrass, Italian [4] = assay: Test C postemergence; format: in vivo, Lolium multiflorum
In short: as §2

sedge, umbrella = assay: Test B flood; format: in vivo, Cyperus difformis; details: 250 g ai/ha, visual rating on 0 to 100 scale (0 no effect, 100 complete control), 13 to 15 days
In short: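 Plants were grown to the 2-leaf stage and pots flooded to 3 cm above soil. Compounds were applied directly into the paddy water, with depth kept for the test. After 13–15 days in greenhouse, response was rated visually against controls on a 0 (no effect) to 100 (complete control) scale.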

waterhemp = assay: Test C preemergence; format: in vivo, Amaranthus rudis
In short: as §2

velvetleaf = assay: Test A postemergence; format: in vivo, Abutilon theophrasti
In short: as §1

johnsongrass = assay: Test C postemergence; format: in vivo, Sorghum halepense; details: for Plant response rating (scale of 0 to 100 where 0 is no effect and 100 is complete control), Johnsongrass: Postemergence, 31 g ai/ha, visually evaluated after 13 to 15 days; for Johnsongrass plant response rating / Plant response rating, Johnsongrass: postemergence; for Johnsongrass plant response rating: 62 g ai/ha, scale 0 to 100
In short: as §2

[5] = Postemergence, 500 g ai/ha, visual rating after approx. 10 days, 0 to 100 scale (0 no effect, 100 complete control)
[6] = postemergence, 125 g ai/ha, about 10 days, visual rating on 0 to 100 scale (0 no effect, 100 complete control)
[7] = 125 g ai/ha, visual injury, 0 to 100 scale, approx. 10 days
[8] = 500 g ai/ha, visual injury after approx. 10 days, 0 to 100 scale (0 no effect, 100 complete control)
[9] = preemergence, 31 g ai/ha, visual rating, scale 0 to 100 (0 no effect, 100 complete control), 13 to 15 days
[10] = preemergence, 62 g ai/ha, scale 0 to 100 (0 no effect, 100 complete control), 13 to 15 days
[11] = preemergence, 125 g ai/ha, scale 0 to 100, 0 is no effect, 100 is complete control
[12] = 250 g ai/ha, scale 0 to 100 (0 no effect, 100 complete control)
[13] = 125 g ai/ha, scale 0 to 100, 0 no effect, 100 complete control
[14] = postemergence, 250 g ai/ha, scale 0 to 100 (0 no effect, 100 complete control)
[15] = postemergence, 125 g ai/ha, scale 0 to 100, 0 no effect, 100 complete control
[16] = Postemergence, 125 g ai/ha, 0 to 100 scale, 0 no effect, 100 complete control
[17] = Postemergence, 500 g ai/ha, 0 to 100 scale (0 no effect, 100 complete control)
[18] = 125 g ai/ha, visual injury approx. 10 days after treatment
[19] = Preemergence, rate head not shown (block before 16 g ai/ha), scale 0 to 100
[20] = preemergence, 125 g ai/ha, 13 to 15 days, scale 0 to 100, 0 = no effect, 100 = complete control
[21] = preemergence, 250 g ai/ha, scale 0 to 100, 0 is no effect, 100 is complete control

## CCc1cc(C(=O)NCC(F)(F)F)nn1Cc1cc(C(F)(F)F)nn1C [Compound 108, 5-ethyl-1-[[1-methyl-3-(trifluoromethyl)-1H-pyrazole-5-yl]methyl]-N-(2,2,2-trifluoroethyl)-1H-pyrazole-3-carboxamide]
Barnyardgrass [1]; [5]
  Barnyardgrass plant response rating: 90
Barnyardgrass [1]; [6]
  Barnyardgrass plant response rating: 90
wheat; [5]
  Wheat plant response rating: 90
wheat; [6]
  Wheat plant response rating: 40
corn; [7]
  Corn plant response rating: 30
corn; [8]
  Corn plant response rating: 90
pigweed; Preemergence, 250 g ai/ha
  Plant response rating (scale of 0 to 100), Pigweed: 100
pigweed; [9]
  Pigweed plant response rating: 100
pigweed; [10]
  Pigweed plant response rating: 100
pigweed; [11]
  Pigweed plant response rating: 100
soybean; Preemergence, 250 g ai/ha
  Plant response rating (scale of 0 to 100), Soybean: 98
soybean; [9]
  Soybean plant response rating: 20
soybean; [10]
  Soybean plant response rating: 90
soybean; [11]
  Soybean plant response rating: 95
Barnyardgrass [2]; [7]
  Barnyardgrass plant response rating: 90
Barnyardgrass [2]; [8]
  Barnyardgrass plant response rating: 100
ryegrass, Italian [3]; Preemergence, 250 g ai/ha
  Plant response rating (scale of 0 to 100), Ryegrass, Italian: 100
ryegrass, Italian [3]; [9]
  Ryegrass, Italian plant response rating: 30
ryegrass, Italian [3]; [10]
  Ryegrass, Italian plant response rating: 60
ryegrass, Italian [3]; [11]
  Ryegrass, Italian plant response rating: 90
oat, wild
  Plant response rating (scale of 0 to 100 where 0 is no effect and 100 is complete control), Oat, Wild: 10
  Oat, Wild plant response rating: 10
oat, wild; [12]
  Plant response rating, Oat, Wild: 20
oat, wild; [13]
  Plant response rating, Oat, Wild: 15
ryegrass, Italian [4]; Postemergence, 31 g ai/ha, visually evaluated after 13 to 15 days
  Plant response rating (scale of 0 to 100 where 0 is no effect and 100 is complete control), Ryegrass, Italian: 0
ryegrass, Italian [4]; postemergence, 62 g ai/ha, scale 0 to 100
  Ryegrass, Italian plant response rating: 5
ryegrass, Italian [4]; [14]
  Plant response rating, Ryegrass, Italian: 20
ryegrass, Italian [4]; [15]
  Plant response rating, Ryegrass, Italian: 5
sedge, umbrella
  Plant response rating, Sedge, Umbrella: 70
waterhemp; Preemergence, 250 g ai/ha
  Plant response rating (scale of 0 to 100), Waterhemp: 100
waterhemp; [9]
  Waterhemp plant response rating: 98
waterhemp; [10]
  Waterhemp plant response rating: 100
waterhemp; [11]
  Waterhemp plant response rating: 100
velvetleaf; [5]
  Velvetleaf plant response rating: 100
velvetleaf; [6]
  Velvetleaf plant response rating: 60
johnsongrass
  Plant response rating (scale of 0 to 100 where 0 is no effect and 100 is complete control), Johnsongrass: 0
  Johnsongrass plant response rating: 0
johnsongrass; [12]
  Plant response rating, Johnsongrass: 5
johnsongrass; [13]
  Plant response rating, Johnsongrass: 0

## CCc1cc(C(=O)NC2CC2)nn1Cc1ccnc(Br)c1 [Compound 220]
Barnyardgrass [1]; [16]
  Barnyardgrass plant response rating: 80
Barnyardgrass [1]; [17]
  Barnyardgrass plant response rating: 100
wheat; [16]
  Wheat plant response rating: 0
wheat; [17]
  Wheat plant response rating: 90
corn; [18]
  Corn plant response rating (0 to 100 scale): 0
corn; [8]
  Corn plant response rating: 90
pigweed; [19]
  Plant response rating, Pigweed: 65
pigweed; [10]
  Pigweed plant response rating: 100
pigweed; [20]
  Plant response rating, Pigweed: 100
pigweed; [21]
  Pigweed plant response rating: 100
soybean; [19]
  Plant response rating, Soybean: 10
soybean; [10]
  Soybean plant response rating: 10
soybean; [20]
  Plant response rating, Soybean: 35
soybean; [21]
  Soybean plant response rating: 60
Barnyardgrass [2]; [18]
  Barnyardgrass plant response rating (0 to 100 scale, 0 is no effect, 100 is complete control): 80
Barnyardgrass [2]; [8]
  Barnyardgrass plant response rating: 100
ryegrass, Italian [3]; [19]
  Plant response rating, Ryegrass, Italian: 0
ryegrass, Italian [3]; [10]
  Ryegrass, Italian plant response rating: 0
ryegrass, Italian [3]; [20]
  Plant response rating, Ryegrass, Italian: 5
ryegrass, Italian [3]; [21]
  Ryegrass, Italian plant response rating: 5
oat, wild
  Plant response rating (scale of 0 to 100 where 0 is no effect and 100 is complete control), Oat, Wild: 0
  Oat, Wild plant response rating: 5
oat, wild; [12]
  Plant response rating, Oat, Wild: 15
oat, wild; [13]
  Plant response rating, Oat, Wild: 10
ryegrass, Italian [4]; [14]
  Plant response rating, Ryegrass, Italian: 5
ryegrass, Italian [4]; [15]
  Plant response rating, Ryegrass, Italian: 5
sedge, umbrella
  Plant response rating, Sedge, Umbrella: 70
waterhemp; [19]
  Plant response rating, Waterhemp: 75
waterhemp; [10]
  Waterhemp plant response rating: 95
waterhemp; [20]
  Plant response rating, Waterhemp: 100
waterhemp; [21]
  Waterhemp plant response rating: 100
velvetleaf; [16]
  Velvetleaf plant response rating: 70
velvetleaf; [17]
  Velvetleaf plant response rating: 80
johnsongrass
  Plant response rating (scale of 0 to 100 where 0 is no effect and 100 is complete control), Johnsongrass: 0
  Johnsongrass plant response rating: 0
johnsongrass; [12]
  Plant response rating, Johnsongrass: 25
johnsongrass; [13]
  Plant response rating, Johnsongrass: 20
